PubChem BioAssay (NCI)
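Assay format: 96-well plates, 48-hour exposure. GI50 = concentration required for 50% inhibition of growth. The concentration for full growth arrest is given as TGI.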

Tests used:
Experiment in all cases: inhibition of tumour cell growth, NCI panel, 48 h
SK-OV-3 ovarian = system: SK-OV-3 ovarian
HCT-15 colon = system: HCT-15 colon
OVCAR-3 ovarian = system: OVCAR-3 ovarian
SR leukemia = system: SR leukemia
HCC-2998 colon = system: HCC-2998 colon
LOX IMVI melanoma = system: LOX IMVI melanoma
SK-MEL-28 melanoma = system: SK-MEL-28 melanoma
SF-539 CNS = system: SF-539 CNS
M14 melanoma = system: M14 melanoma
SF-268 CNS = system: SF-268 CNS

Structure (SMILES) | TGI (SK-OV-3 ovarian) [µM] | TGI (HCT-15 colon) [µM] | TGI (OVCAR-3 ovarian) [µM] | TGI (SR leukemia) [µM] | TGI (HCC-2998 colon) [µM] | TGI (LOX IMVI melanoma) [µM] | TGI (SK-MEL-28 melanoma) [µM] | TGI (SF-539 CNS) [µM] | TGI (M14 melanoma) [µM] | TGI (SF-268 CNS) [µM] | GI50 (SK-OV-3 ovarian) [µM] | GI50 (HCT-15 colon) [µM] | GI50 (OVCAR-3 ovarian) [µM] | GI50 (SR leukemia) [µM] | GI50 (HCC-2998 colon) [µM] | GI50 (LOX IMVI melanoma) [µM] | GI50 (SK-MEL-28 melanoma) [µM] | GI50 (SF-539 CNS) [µM] | GI50 (M14 melanoma) [µM] | GI50 (SF-268 CNS) [µM]
CCCc1ccc(OCC(=O)N/N=C/c2c(-c3ccccc3)[nH]c3ccccc23)cc1 | > 100 | 59.8 | 95.2 | 23.1 | 14.1 | 21.6 | > 100 | 42.5 | 28.2 | > 100 |  |  |  |  |  |  |  |  |  | 
CC(O)=NC(Cc1ccc2ccccc2c1)C(O)=NC(Cc1ccc(Cl)cc1)C(O)=NC(Cc1c[nH]c2ccccc12)C(O)=NC(CO)C(O)=NC(Cc1ccc(O)cc1)C(O)=NC(CCCN=C(N)N)C(O)=NC(CC(C)C)C(O)=NC(CCCN=C(N)N)C(=O)N1CCCC1C(O)=NC(C)C(=N)O (centres undefined) | 72.3 | > 100 | > 100 | > 100 | > 100 |  |  | 99.7 | > 100 | > 100 |  |  |  |  |  |  |  |  |  | 
CCOC(=O)[C@H]1C[C@]23CN(C(=O)OC(C)(C)C)CC[C@H]2CCC2(SCCCS2)[C@@H]3N1C | > 100 | > 100 | > 100 | 76.5 | 65.4 | > 100 | > 100 | > 100 | > 100 | > 100 |  |  |  |  |  |  |  |  |  | 
C[n+]1c(-c2ccc(/C=N\NC(=O)c3ccc(C(=O)N/N=C/c4ccc(-c5cn6ccsc6[n+]5C)cc4)cc3)cc2)cn2ccsc21 | 74.6 | 37.8 | 28.5 | 85.6 | 58.4 |  |  | 56.1 | 44.9 |  |  |  |  |  |  |  |  |  |  | 
CS(=O)(=O)OCc1c(O)c2c(c(O)c1COS(C)(=O)=O)C(=O)C=CC2=O | > 100 | > 100 | > 100 | > 100 | > 100 |  | > 100 | > 100 | > 100 | > 100 |  |  |  |  |  |  |  |  |  | 
C=C1C(=O)OC2/C=C(\C)CC(O)/C=C(/CO)CC(OC(=O)/C(C)=C/C)C12 (centres undefined) | 309 | 151 | 122 |  | 134 |  | 41.1 | 115 |  | 233 |  |  |  |  |  |  |  |  |  | 
O=C(Nc1ccc(F)cc1)c1cc2ccc(O)cc2oc1=Nc1ccccc1F | 67.1 | 59 | > 100 | > 100 | > 100 | 49.6 | > 100 | > 100 |  | > 100 |  |  |  |  |  |  |  |  |  | 
CC[N+](CC)(CC)/C(=N/S(=O)(=O)c1cc(C)c(Cl)cc1S)[N-]S(=O)(=O)c1ccc(Cl)cc1 | > 100 | > 100 | > 100 |  | > 100 | > 100 | > 100 | > 100 | > 100 | > 100 |  |  |  |  |  |  |  |  |  | 
C[C@H](O)C(=O)SC[C@H](NC(=O)CC[C@@H](N)C(=O)O)C(=O)NCC(=O)O | > 100 | > 100 | > 100 | > 100 | > 100 | > 100 | > 100 |  | > 100 | > 100 |  |  |  |  |  |  |  |  |  | 
O=C(CCO)OCCCCCC/C=C\CCCCCC/C=C\CCCCCCCCOC(=O)CCO | 37.5 | 29.1 | 41.2 |  | 30.1 | 36.6 | 37.5 | > 100 | 30.9 | 32.5 |  |  |  |  |  |  |  |  |  | 
CC(C)Cc1cccc(C(C)C)c1NC(=O)CCC(=O)N/N=C1\C(=N/NC(=O)CCC(=O)Nc2c(C(C)C)cccc2C(C)C)C(c2ccc3c(c2)OCO3)Oc2ccccc21 (centres undefined) | > 100 | > 100 |  | > 100 | > 100 | > 100 | > 100 | > 100 | > 100 | > 100 |  |  |  |  |  |  |  |  |  | 
Cc1ccc(S(=O)(=O)NCCSS(=O)(=O)c2ccc(C)cc2)cc1 | > 100 | 37.8 |  | 39 | > 100 | 53.5 | 76.6 |  |  | 46.3 |  |  |  |  |  |  |  |  |  | 
OC1(c2ccc3ccccc3c2)c2ccc3ccccc3c2C2=NCCN21 (centres undefined) | > 100 | > 100 | > 100 | > 100 | > 100 | > 100 | > 100 | > 100 | > 100 | > 100 |  |  |  |  |  |  |  |  |  | 
O=c1cc(-c2nc3ccccc3[nH]2)[nH]c2nc(-c3nc4ccccc4[nH]3)cc(-c3ccc(Cl)cc3)c12 | 46.1 | 25.5 | 63.4 | 46.6 |  | 31.8 |  | 31.8 | 62.5 | 47.5 |  |  |  |  |  |  |  |  |  | 
Cc1onc(-c2c(F)cccc2Cl)c1C(=O)N[C@@H]1C(=O)N2[C@@H]1SC(C)(C)[C@@H]2C(=O)O | > 100 | > 100 | > 100 | > 100 |  |  | > 100 | > 100 | > 100 | > 100 |  |  |  |  |  |  |  |  |  | 
Cc1cc(-c2nc3cc(F)ccc3s2)ccc1NC(=O)C(C)N (centres undefined) | 8.84 | 6.67 | 7.32 | 5.24 | 3.57 | 10.1 | 11 | 14.2 | 9.74 | 9.5 |  |  |  |  |  |  |  |  |  | 
COc1cc(NCc2ccc3n2-c2ccccc2OC3)cc(OC)c1OC |  | > 100 | 75.5 | 35.6 | 51.6 | 27.4 | > 100 |  | > 100 | > 100 |  |  |  |  |  |  |  |  |  | 
CCCC(=O)OCC(O)CO (centres undefined) | > 5000 | > 5000 |  | > 5000 |  | > 5000 | > 5000 | > 5000 | > 5000 | > 5000 |  |  |  |  |  |  |  |  |  | 
ClCC1(CCl)COC1 | > 100 | > 100 | > 100 | > 100 | > 100 | > 100 | > 100 |  | > 100 | > 100 |  |  |  |  |  |  |  |  |  | 
NC(N)=N/N=C/c1ccc(O)c(C(=O)O)c1 | > 100 | > 100 | > 100 | > 100 | > 100 | > 100 | > 100 | > 100 | > 100 | > 100 |  |  |  |  |  |  |  |  |  | 
O=C(/N=C/c1c(O)c2ccccc2oc1=O)NC1CCCCC1 |  | > 100 |  | > 100 | > 100 | > 100 | > 100 | > 100 | > 100 | > 100 |  |  |  |  |  |  |  |  |  | 
CCOc1ccc2c(c1)NC(=O)C(C1OC(c3ccccc3)=CC1=O)S2 (centres undefined) | 52.8 | 69.2 | 50.1 | 46.1 | 37.7 | 67 | 68.8 | 45 | > 100 | 63.1 |  |  |  |  |  |  |  |  |  | 
COc1ccc(-n2cc(-c3ccc(OC)c(OC)c3)nc2SCc2ccccc2)cc1Cl | > 100 | > 100 | > 100 | 51.1 | 45.5 | > 100 | > 100 | 79.5 | > 100 | > 100 | 66.6 | 20 | 20.6 | 16 | 19.3 | 34.7 | 27.4 | 24.5 | 26 | 30.4
C=CCC1=CC2(OC)C(=O)C(OC)(OC)C1C1C(OC)(OC)C(=O)C(OC)=CC12CC=C (centres undefined) | > 100 | > 100 | > 100 |  | > 100 | > 100 | > 100 | > 100 | > 100 | > 100 |  |  |  |  |  |  |  |  |  | 
NC1=NS(=O)(=O)Nc2nc(-c3cccs3)[nH]c21 | > 100 | > 100 | > 100 | > 100 | > 100 | > 100 | > 100 | > 100 | > 100 | > 100 |  |  |  |  |  |  |  |  |  | 
CCOc1cc(NC(C)=O)ccc1C(=O)NN1C(=O)CSC1c1ccc(O)c(OC)c1 (centres undefined) | > 100 | > 100 | > 100 | > 100 | > 100 | > 100 | > 100 | > 100 | > 100 | > 100 |  |  |  |  |  |  |  |  |  | 
FC(F)(F)C1=NC(=NNc2nnc(-c3ccccc3)c(-c3ccccc3)n2)N=C(C(F)(F)F)C1 | > 100 | > 100 | > 100 |  | > 88.9 | > 100 | > 100 | > 100 |  | > 100 |  |  |  |  |  |  |  |  |  | 
CO[C@]12C[C@H](CNC(=O)c3cc(Br)c(Br)[nH]3)O[C@H]1NC(=O)N2 | > 100 | > 100 | > 100 | > 100 | > 100 | > 100 | > 100 | > 100 | > 100 | > 100 |  |  |  |  |  |  |  |  |  | 
